Measured values: patent US20100267561A1, “HERBICIDAL PYRIDAZINONE DERIVATIVES” (priority 2007, published 2010)

Tests used:
Test in all cases: Test E pre-/postemergence plant response
Format in all cases: in vivo
[1] = test system: common groundsel (Senecio vulgaris)
Procedure, shortened: (§1)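 In this greenhouse assay, sown seeds received preemergence treatment and young plants of 2 to 18 cm (1- to 4-leaf stage) received postemergence treatment, both with compound in a non-phytotoxic solvent and surfactant vehicle. Effects were rated visually 14 to 21 days later on a 0–100 control scale.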

[2] = test system: common mallow (Malva sylvestris)
Procedure, shortened: as §1

[3] = test system: surinam grass (Brachiaria decumbens)
Procedure, shortened: as §1

[4] = test system: itchgrass (Rottboellia cochinchinensis)
Procedure, shortened: as §1

[5] = test system: prickly sida (Sida spinosa)
Procedure, shortened: as §1

[6] = test system: annual bluegrass (Poa annua)
Procedure, shortened: as §1

[7] = test system: purple nutsedge (Cyperus rotundus)
Procedure, shortened: as §1

[8] = test system: Italian ryegrass (Lolium multiflorum)
Procedure, shortened: as §1

[9] = test system: barnyardgrass (Echinochloa crus-galli); details: Postemergence, scale 0 to 100
Procedure, shortened: as §1

[10] = test system: guineagrass (Panicum maximum)
Procedure, shortened: as §1

[11] = test system: johnsongrass (Sorghum halepense)
Procedure, shortened: as §1

[12] = test system: naked crabgrass (Digitaria nuda)
Procedure, shortened: as §1

[13] = test system: dallisgrass (Paspalum dilatatum)
Procedure, shortened: as §1

[14] = test system: green foxtail (Setaria viridis)
Procedure, shortened: as §1

[15] = test system: southern (S.) sandbur (Cenchrus echinatus)
Procedure, shortened: as §1

[16] = test system: common purslane (Portulaca oleracea)
Procedure, shortened: as §1

[17] = 8 g ai/ha, Postemergence, scale 0 to 100
[18] = Postemergence, 16 g ai/ha; scale 0 to 100
[19] = Postemergence, 31 g ai/ha; scale 0 to 100
[20] = Postemergence, 62 g ai/ha; scale 0 to 100
[21] = Postemergence, 8 g ai/ha, scale 0 to 100

Cc1cc(-c2ccc(Cl)cc2)nn1-c1c(OC(=O)Oc2ccccc2)cnn(C)c1=O [Compound 54]
80: Plant response rating, Ryegrass, Italian [8, 17] | Plant response rating, Ryegrass, Italian [8, 18] | Plant response rating, Dallisgrass [13, 20] | Plant response rating, Foxtail, Green [14, 19] | Plant response rating, Sandbur, S. [15, 18]
60: Plant response rating, Johnsongrass [11, 18] | Plant response rating, Sandbur, S. [15, 17]
95: Plant response rating, Itchgrass [4, 19] | Plant response rating, Barnyardgrass ([9]; 8 g ai/ha) | Plant response rating, Guineagrass [10, 17] | Plant response rating, Guineagrass [10, 18] | Plant response rating, Guineagrass [10, 19] | Plant response rating, Sandbur, S. [15, 20]
70: Plant response rating, Foxtail, Green [14, 18]
10: Plant response rating, Itchgrass [4, 17] | Plant response rating, Crabgrass, Naked [12, 17]
100: Plant response rating, Surinam Grass [3, 19] | Plant response rating, Surinam Grass [3, 20] | Plant response rating, Itchgrass [4, 20] | Plant response rating, Ryegrass, Italian [8, 19] | Plant response rating, Ryegrass, Italian [8, 20] | Plant response rating, Barnyardgrass ([9]; 31 g ai/ha) | Plant response rating, Barnyardgrass ([9]; 62 g ai/ha) | Plant response rating, Guineagrass [10, 20] | Plant response rating, Johnsongrass [11, 19] | Plant response rating, Johnsongrass [11, 20]
40: Plant response rating, Dallisgrass [13, 19] | Plant response rating, Foxtail, Green [14, 17]
20: Plant response rating, Johnsongrass [11, 17] | Plant response rating, Dallisgrass [13, 17]
90: Plant response rating, Surinam Grass [3, 17] | Plant response rating, Surinam Grass [3, 18] | Plant response rating, Itchgrass [4, 18] | Plant response rating, Crabgrass, Naked [12, 19] | Plant response rating, Crabgrass, Naked [12, 20] | Plant response rating, Sandbur, S. [15, 19]
0: Plant response rating, Groundsel [1, 17] | Plant response rating, Groundsel [1, 18] | Plant response rating, Groundsel [1, 19] | Plant response rating, Mallow [2, 17] | Plant response rating, Mallow [2, 18] | Plant response rating, Mallow [2, 19] | Plant response rating, Mallow [2, 20] | Plant response rating, Prickly Sida [5, 17] | Plant response rating, Prickly Sida [5, 18] | Plant response rating, Prickly Sida [5, 19] | Plant response rating, Prickly Sida [5, 20] | Plant response rating, Bluegrass [6, 17] | Plant response rating, Bluegrass [6, 18] | Plant response rating, Bluegrass [6, 19] | Plant response rating, Bluegrass [6, 20] | Plant response rating, Nutsedge, Purple [7, 17] | Plant response rating, Nutsedge, Purple [7, 18] | Plant response rating, Nutsedge, Purple [7, 19] | Plant response rating, Nutsedge, Purple [7, 20] | Plant response rating, Purslane [16, 17] | Plant response rating, Purslane [16, 18] | Plant response rating, Purslane [16, 19] | Plant response rating, Purslane [16, 20]
98: Plant response rating, Barnyardgrass ([9]; 16 g ai/ha) | Plant response rating, Foxtail, Green [14, 20]
85: Plant response rating, Crabgrass, Naked [12, 18]
30: Plant response rating, Dallisgrass [13, 18]

Cc1cc(-c2ccc(Cl)cc2)nn1-c1c(OC(=O)c2cccc(Cl)c2)cnn(C)c1=O [Compound 32]
100: Plant response rating, Surinam Grass [3, 19] | Plant response rating, Surinam Grass [3, 20] | Plant response rating, Barnyardgrass ([9]; 31 g ai/ha) | Plant response rating, Barnyardgrass ([9]; 62 g ai/ha) | Plant response rating, Guineagrass [10, 20] | Plant response rating, Johnsongrass [11, 20]
85: Plant response rating, Foxtail, Green [14, 19]
95: Plant response rating, Ryegrass, Italian [8, 18] | Plant response rating, Ryegrass, Italian [8, 19]
40: Plant response rating, Dallisgrass [13, 20] | Plant response rating, Foxtail, Green [14, 21]
98: Plant response rating, Ryegrass, Italian [8, 20] | Plant response rating, Barnyardgrass ([9]; 8 g ai/ha) | Plant response rating, Barnyardgrass ([9]; 16 g ai/ha) | Plant response rating, Guineagrass [10, 18] | Plant response rating, Guineagrass [10, 19] | Plant response rating, Johnsongrass [11, 19]
0: Plant response rating, Groundsel [1, 21] | Plant response rating, Groundsel [1, 18] | Plant response rating, Groundsel [1, 19] | Plant response rating, Groundsel [1, 20] | Plant response rating, Mallow [2, 21] | Plant response rating, Mallow [2, 18] | Plant response rating, Mallow [2, 19] | Plant response rating, Mallow [2, 20] | Plant response rating, Prickly Sida [5, 21] | Plant response rating, Prickly Sida [5, 18] | Plant response rating, Prickly Sida [5, 19] | Plant response rating, Prickly Sida [5, 20] | Plant response rating, Bluegrass [6, 21] | Plant response rating, Bluegrass [6, 18] | Plant response rating, Bluegrass [6, 19] | Plant response rating, Bluegrass [6, 20] | Plant response rating, Nutsedge, Purple [7, 21] | Plant response rating, Nutsedge, Purple [7, 18] | Plant response rating, Nutsedge, Purple [7, 19] | Plant response rating, Nutsedge, Purple [7, 20] | Plant response rating, Dallisgrass [13, 21] | Plant response rating, Purslane [16, 21] | Plant response rating, Purslane [16, 18] | Plant response rating, Purslane [16, 19] | Plant response rating, Purslane [16, 20]
75: Plant response rating, Itchgrass [4, 18] | Plant response rating, Ryegrass, Italian [8, 21] | Plant response rating, Sandbur, S. [15, 18]
60: Plant response rating, Crabgrass, Naked [12, 21] | Plant response rating, Foxtail, Green [14, 18] | Plant response rating, Sandbur, S. [15, 21]
20: Plant response rating, Dallisgrass [13, 18]
80: Plant response rating, Surinam Grass [3, 21] | Plant response rating, Johnsongrass [11, 18] | Plant response rating, Crabgrass, Naked [12, 19] | Plant response rating, Sandbur, S. [15, 19] | Plant response rating, Sandbur, S. [15, 20]
30: Plant response rating, Itchgrass [4, 21] | Plant response rating, Dallisgrass [13, 19]
90: Plant response rating, Itchgrass [4, 19] | Plant response rating, Itchgrass [4, 20] | Plant response rating, Guineagrass [10, 21] | Plant response rating, Crabgrass, Naked [12, 20] | Plant response rating, Foxtail, Green [14, 20]
50: Plant response rating, Johnsongrass [11, 21]
